Values quoted from earlier work, collected in PMC8597081, “Diphenylalanine Motif Drives Self‐Assembling in Hybrid PNA‐Peptide Conjugates” (Chemistry (Weinheim an Der Bergstrasse, Germany), 2021).

Conditions: N3-protonated cytosine; N7-protonated guanine
Protocol: Nevertheless, as it can be seen in the 1D spectra (Figure S12) even at 46.9 mM concentration, the absence of a signal at low field arising from the imino proton let speculate that guanine and cytosine are not paired.

| SMILES | pKa |
| --- | --- |
| Nc1cc[nH]c(=O)n1 [cytosine] | 4.2 |
| Nc1nc2nc[nH]c2c(=O)[nH]1 [guanine] | 1.9–2.2 |
